Calls of active or inactive are those of the source. The calls are words filed in the database; no cut-off is given here.

Results on 31 compounds are retold here after ChEMBL document CHEMBL6096648, “Discovery of phenazine derivatives as a new class of non-classical ferroptosis inhibitors and efficacy evaluation on a mouse model of liver injury” (Eur J Med Chem, 2025).

In one test the test system is LX-2. Briefly: Inhibition of erastin-induced ferroptosis in human LX2 cells assessed as increase in cell viability incubated for 48 hrs in presence of erastin by MTT assay. It counts as functional, cell-based. Conditions: LX-2, 48 h.
Test [1] deals with ES-2. Briefly: Inhibition of erastin-induced ferroptosis in human ES2 cells assessed as increase in cell viability incubated for 48 hrs in presence of erastin by MTT assay. It counts as functional, cell-based. Conditions: ES-2, 48 h.
Test [2] deals with ES-2. Briefly: Inhibition of erastin-induced ferroptosis in human ES2 cells assessed as xCT protein expression at 0.01 to 1 uM incubated for 8 to 10 hrs by western blot analysis. The class given is functional, cell-based. Conditions: dose 0.01-1 µM, time 8-10 hrs.
Test [3] has as its system ES-2. Briefly: Inhibition of ferritinophagy in erastin-stimulated human ES2 cells assessed as increase in ferritin protein expression incubated for 8 to 10 hrs by western blot analysis. Conditions: dose 0.01-1 µM, time 8-10 hrs. It counts as functional, cell-based.
Test [4] concerns Mus musculus. Briefly: Protection against APAP-induced acute liver injury C57BL/6 mouse model assessed as decrease in serum AST content at 3 mg/kg, ip administered 2 hrs prior to APAP injection and measured after 6 hrs. Conditions: time 8.0 hrs. It counts as functional, organism-based.
The subject of test [5] is ES-2. Briefly: Inhibition of ferritinophagy in erastin-stimulated human ES2 cells assessed as increase in NCOA4 protein expression incubated for 8 to 10 hrs by western blot analysis. It counts as functional, cell-based. Conditions: dose 0.01-1 µM, time 8-10 hrs.
Test [6] deals with Mus musculus. Briefly: Protection against APAP-induced acute liver injury C57BL/6 mouse model assessed as decrease in liver tissue damage at 3 mg/kg, ip administered 2 hrs prior to APAP injection and measured after 6 hrs by Hematoxylin-Eosin staining based analysis. Conditions: time 8.0 hrs. The class given is functional, organism-based.
In test [7] the test system is ES-2. Briefly: Inhibition of erastin-induced ferroptosis in human ES2 cells assessed as ERK protein expression at 0.01 to 1 uM incubated for 8 to 10 hrs by western blot analysis. It counts as functional, cell-based. Conditions: dose 0.01-1 µM, time 8-10 hrs. (In general: In western blotting, separated proteins are transferred to a membrane and probed.)
A short description of test [8]: Potency index, ratio of ferrostatin-1 EC50 to test compound EC50 for inhibition of erastin-induced ferroptosis in human ES2 cells. It counts as functional, ES-2.
Test [9] deals with ES-2. Briefly: Inhibition of erastin-induced ferroptosis in human ES2 cells assessed as NRF2 protein expression at 0.01 to 1 uM incubated for 8 to 10 hrs by western blot analysis. It counts as functional, cell-based. Conditions: dose 0.01-1 µM, time 8-10 hrs.
Test [10] concerns Mus musculus. Briefly: Protection against APAP-induced acute liver injury C57BL/6 mouse model assessed as decrease in liver MDA content at 3 mg/kg, ip administered 2 hrs prior to APAP injection and measured after 6 hrs. The class given is functional, organism-based. Conditions: time 8.0 hrs.
The subject of test [11] is ES-2. Briefly: Inhibition of erastin-induced ferroptosis in human ES2 cells assessed as FPN protein expression at 0.01 to 1 uM incubated for 8 to 10 hrs by western blot analysis. The class given is functional, cell-based. Conditions: dose 0.01-1 µM, time 8-10 hrs.
Test [12] has as its system ES-2. Briefly: Inhibition of ferritinophagy in erastin-stimulated human ES2 cells assessed as increase in FTH1 gene expression at 0.01 to 1 uM by qRT-PCR analysis. The class given is functional, cell-based. Conditions: dose 0.01-1 µM. For orientation: Quantitative PCR measures a nucleic acid by following its amplification.
Test [13] has as its system ES-2. Briefly: Inhibition of erastin-induced ferroptosis in human ES2 cells assessed as GPX4 protein expression at 0.01 to 1 uM incubated for 8 to 10 hrs by western blot analysis. It counts as functional, cell-based. Conditions: dose 0.01-1 µM, time 8-10 hrs.
The subject of test [14] is ES-2. Briefly: Inhibition of ferritinophagy in erastin-stimulated human ES2 cells assessed as increase in FTL gene expression at 0.01 to 1 uM by qRT-PCR analysis. Conditions: dose 0.01-1 µM. It counts as functional, cell-based.
In test [15] the test system is ES-2. Briefly: Inhibition of ferritinophagy in erastin-stimulated human ES2 cells assessed as increase in NCOA4 gene expression at 0.01 to 1 uM by qRT-PCR analysis. It counts as functional, cell-based. Conditions: dose 0.01-1 µM.
In test [16] the test system is Mus musculus. Briefly: Protection against APAP-induced acute liver injury C57BL/6 mouse model assessed as decrease in serum ALT content at 3 mg/kg, ip administered 2 hrs prior to APAP injection and measured after 6 hrs. The class given is functional, organism-based. Conditions: time 8.0 hrs.
The test system of the next test is ES2. Briefly: Effect on ERK1/2 phoshorylation in erastin-stimulated human ES2 cells at 0.01 to 1 uM incubated for 8 to 10 hrs by western blot analysis. Conditions: dose 0.01-1 µM, time 8-10 hrs. It counts as cell-based.
Test [17] concerns ES-2. Briefly: Inhibition of erastin-induced ferroptosis in human ES2 cells assessed as DMT1 protein expression at 0.01 to 1 uM incubated for 8 to 10 hrs by western blot analysis. It counts as functional, cell-based. Conditions: dose 0.01-1 µM, time 8-10 hrs.
The subject of the next test is HT-29. Briefly: Inhibition of TNF-alpha/Smac-mimetic/Z-VAD-FMK-induced necrosis in human HT-29 cells assessed as cell viability at 10 uM incubated for 24 hrs in presence of TNF-alpha/Smac-mimetic/Z-VAD-FMK by MTT assay. The class given is functional, cell-based. For orientation: Formazan colour is commonly taken as a measure of viable cells.
Test [18] relates to ES-2. Briefly: Inhibition of erastin-induced ferroptosis in human ES2 cells assessed as TFR1 protein expression at 0.01 to 1 uM incubated for 8 to 10 hrs by western blot analysis. Conditions: dose 0.01-1 µM, time 8-10 hrs. The class given is functional, cell-based.
For test [19], the system named is ES-2. Briefly: Inhibition of erastin-induced ferroptosis in human ES2 cells assessed as inhibition of lipid peroxidation by measuring decrease in MDA content at 0.01 uM measured after 8 to 10 hrs. The class given is functional, cell-based. Conditions: time 8-10 hrs.
In test [20] the test system is ES-2. Briefly: Inhibition of erastin-induced ferroptosis in human ES2 cells assessed as increase in intracellular GSH content at 0.01 to 1 uM measured after 8 to 10 hrs. The class given is functional, cell-based. Conditions: dose 0.01-1 µM, time 8-10 hrs.
The subject of test [21] is ES-2. Briefly: Inhibition of erastin-induced ferroptosis in human ES2 cells assessed as reduction in cytosolic ROS accumulation at 0.01 to 1 uM measured after 8 to 10 hrs by DCFH-DA staining based fluorescence analysis. Conditions: dose 0.01-1 µM, time 8-10 hrs. The class given is functional, cell-based.
Test [22] in a line: Antioxidant activity assessed as DPPH radical scavenging activity at 1 to 50 uM incubated for 10 mins by DPPH assay. The class given is functional. Conditions: dose 1-50 µM.
For test [23], the system named is ES-2. Briefly: Inhibition of staurosporine-induced apoptosis in human ES2 cells assessed as cell viability at 10 uM incubated for 24 hrs in presence of staurosporine by MTT assay. It counts as functional, cell-based.
The nature of test [24]: Metal chelating activity assessed as compound-Fe2+ complex formation at 10 uM incubated for 5 mins by ferrozine-based colorimetric assay.
The subject of test [25] is ES-2. Briefly: Inhibition of erastin-induced ferroptosis in human ES2 cells assessed as FACL4 protein expression at 0.01 to 1 uM incubated for 8 to 10 hrs by western blot analysis. Conditions: dose 0.01-1 µM, time 8-10 hrs. The class given is functional, cell-based.
The test system of a further test is THP-1. Briefly: Inhibition of LPS/nigericin-stimulated pyroptosis in PMA-differentiated human THP-1 cells assessed as cell viability at 10 uM treated with LPS for 4 hrs followed by incubation with compound and nigericin for 30 mins by MTT assay. It counts as functional, cell-based.
The test system of test [26] is ES-2. Briefly: Inhibition of erastin-induced ferroptosis in human ES2 cells assessed as increase in intracellular GSH content at 1 uM measured after 8 to 10 hrs. The class given is functional, cell-based. Conditions: time 8-10 hrs.

As usually defined, the EC50 is the concentration that produces a half-maximal response. Take `Cc1cccc(-c2noc(-c3cccc4nc5ccccc5nc34)n2)c1`: the EC50 with LX-2 was found to be 4 nM; with ES-2 [1], 7 nM.
Take `CC(C)c1noc(-c2cccc3nc4ccccc4nc23)n1`: the EC50 in the test on ES-2 [1] worked out at 136 nM.
For `c1ccc2nc3c(-c4nc(-c5nccs5)no4)cccc3nc2c1`, the EC50 with ES-2 [1] was determined as 6 nM.
With `c1ccc2nc3c(-c4nc(-c5ccc(N6CCOCC6)cc5)no4)cccc3nc2c1`, the EC50 in the test on LX-2 and in the test on ES-2 [1] was 1 nM throughout.
As to `c1ccc(-c2noc(-c3cccc4nc5ccccc5nc34)n2)nc1`, in the test with ES-2 [1], the EC50 stood at 131 nM.
As to `Cc1ccccc1-c1noc(-c2cccc3nc4ccccc4nc23)n1`, the EC50 turned out to be 10 nM with LX-2 and 13 nM in the test with ES-2 [1].
In the case of `c1cc(CN2CCCCC2)cc(-c2noc(-c3cccc4nc5ccccc5nc34)n2)c1`, the inhibition entry with ES-2 [2], in the test on ES-2 [7], with ES-2 [9], with ES-2 [11], with ES-2 [13] and with ES-2 [17] was “inactive” each time. Also, the inhibition result in the test on HT-29, with ES-2 [18], in the test on ES-2 [20], in the test on ES-2 [23], in the test with ES-2 [25] and in the test with THP-1 was “inactive” throughout. The inhibition result with ES-2 [3] and in the test on ES-2 [5] was “Dose-dependent-effect” throughout. Also, the outcome with Mus musculus [4], in the test on Mus musculus [6], with Mus musculus [10] and with Mus musculus [16] was Active. In [8], the “Ratio EC50” value was found to be 1000. Further, the inhibition entry in the test on ES-2 [12], in the test on ES-2 [14], in the test on ES-2 [15], in the test on ES-2 [19] and with ES-2 [21] was “Active” each time. Moreover, the EC50 came out at 0.925 nM in the test with LX-2 and 0.712 nM in the test with ES-2 [1]. The outcome (in the test with ES2; in test [22]; in test [24]) was inactive.
Regarding `Cc1ccc(-c2noc(-c3cccc4nc5ccccc5nc34)n2)cc1`, the values for the EC50 with LX-2 and with ES-2 [1] were 2 nM and 130 nM, respectively.
Regarding `c1ccc2nc3c(-c4nc(-c5ccncc5)no4)cccc3nc2c1`, the EC50 in the test with ES-2 [1] stood at 7 nM.
Take `CC(C)(C)c1ccc(-c2noc(-c3cccc4nc5ccccc5nc34)n2)cc1`: the figures for the EC50 with LX-2 and in the test on ES-2 [1] were 13 nM and 11 nM, respectively.
For `COc1ccccc1-c1noc(-c2cccc3nc4ccccc4nc23)n1` the same measures were 5 nM and 13 nM.
For `FC(F)(F)c1ccccc1-c1noc(-c2cccc3nc4ccccc4nc23)n1`, in that order: 15 nM and 39 nM.
Consider `CC(C)(C)c1noc(-c2cccc3nc4ccccc4nc23)n1`, for which the EC50 with ES-2 [1] came out at 604 nM.
Regarding `CCOC(=O)c1ccc(NC2CCCCC2)c(N)c1`, the values for the EC50 with LX-2 and in the test on ES-2 [1] were 67 nM and 70.1 nM, respectively. Also, the inhibition result in the test on HT-29, in the test on ES-2 [23], in the test on THP-1 and in the test on ES-2 [26] was “inactive” throughout.
In the case of `c1cncc(-c2noc(-c3cccc4nc5ccccc5nc34)n2)c1`, in the test with ES-2 [1], the EC50 worked out at 240 nM.
On the same count and under the same terms, the figure for `c1ccc2nc3c(-c4nc(C5CC5)no4)cccc3nc2c1` is 214 nM.
Turning to `CN(C)c1cccc(-c2noc(-c3cccc4nc5ccccc5nc34)n2)c1`, the EC50 was 2 nM in the test with LX-2 and 1 nM in the test with ES-2 [1].
For `FC(F)(F)Oc1cccc(-c2noc(-c3cccc4nc5ccccc5nc34)n2)c1` the same measures were 14 nM and 6 nM.
For `Fc1ccccc1-c1noc(-c2cccc3nc4ccccc4nc23)n1` the same measures were 1 nM and 5 nM.
For `FC(F)(F)c1cccc(-c2noc(-c3cccc4nc5ccccc5nc34)n2)c1` the same measures were 13 nM and 2 nM.
Regarding `FC(F)(F)c1ccc(-c2noc(-c3cccc4nc5ccccc5nc34)n2)cc1`, the EC50 is 32 nM in the test on LX-2 and 3 nM in the test with ES-2 [1].
As to `c1ccc2nc3c(-c4nc(-n5cccn5)no4)cccc3nc2c1`, the EC50 in the test with ES-2 [1] amounted to 143 nM.
`Fc1cccc(-c2noc(-c3cccc4nc5ccccc5nc34)n2)c1`: the EC50 in the test on LX-2 and with ES-2 [1] was 2 nM each time.
With `c1ccc(-c2noc(-c3cccc4nc5ccccc5nc34)n2)cc1`, the EC50 in the test with ES-2 [1] turned out to be 4 nM.
With `CCOc1ccccc1-c1noc(-c2cccc3nc4ccccc4nc23)n1`, the results for the EC50 in the test on LX-2 and in the test on ES-2 [1] were 10 nM and 23 nM, respectively.
For `Brc1cccc(-c2noc(-c3cccc4nc5ccccc5nc34)n2)c1` the same measures were 6 nM and 2 nM.
As for `CC(C)(C)c1cccc(-c2noc(-c3cccc4nc5ccccc5nc34)n2)c1`, the EC50 in the test with LX-2 came to 7 nM; in the test on ES-2 [1], 3 nM.
On to `c1ccc2nc3ccccc3nc2c1` [PHENAZINE], for which the EC50 in the test with ES-2 [1] was found to be 2820 nM.
For `Fc1ccc(-c2noc(-c3cccc4nc5ccccc5nc34)n2)cc1F`, the EC50 in the test with LX-2 turned out to be 11 nM; in the test on ES-2 [1] it was 9 nM.
For `Cc1noc(-c2cccc3nc4ccccc4nc23)n1`, in the test on ES-2 [1], the EC50 was determined as 268 nM.
As to `Fc1ccc(-c2noc(-c3cccc4nc5ccccc5nc34)n2)cc1`, the EC50 in the test on LX-2 and in the test with ES-2 [1] was 2 nM each time.
